Patent publication US8673950B2, “Dihydrooxazol-2-amine derivatives” (Hoffmann-LaRoche Inc., priority 2010, dated 2014)

How the values were obtained:
mouse TAAR1 = mouse TAAR1 (Mus musculus (Mouse), UniProt Q923Y8); test: Radioligand binding assay on mouse TAAR1; conditions: mouse TAAR1, membranes of stably transfected HEK-293 cells; first value of cell mouse/rat
Description: (§1) Construction of TAAR Expression Plasmids and Stably Transfected Cell Lines
(§2) For the construction of expression plasmids the coding sequences of human, rat and mouse TAAR 1 were amplified from genomic DNA essentially as described by Lindemann et al.. The Expand High Fidelity PCR System (Roche Diagnostics) was used with 1.5 mM Mg^2+ and purified PCR products were cloned into pCR2.1-TOPO cloning vector (Invitrogen) following the instructions of the manufacturer. PCR products were subcloned into the pIRESneo2 vector (BD Clontech, Palo Alto, Calif.), and expression vectors were sequence verified before introduction in cell lines.
(§3) HEK293 cells (ATCC # CRL-1573) were cultured essentially as described by Lindemann et al. (2005). For the generation of stably transfected cell lines HEK293 cells were transfected with the pIRESneo2 expression plasmids containing the TAAR coding sequences (described above) with Lipofectamine 2000 (Invitrogen) according to the instructions of the manufacturer, and 24 hrs post transfection the culture medium was supplemented with 1 mg/ml G418 (Sigma, Buchs, Switzerland). After a culture period of about 10 d clones were isolated, expanded and tested for responsiveness to trace amines (all compounds purchased from Sigma) with the cAMP Biotrak Enzyme immunoassay (EIA) System (Amersham) following the non-acetylation EIA procedure provided by the manufacturer.
Radioligand Binding Assay on Mouse TAAR1
(§4) Membrane Preparation and Radioligand Binding.
(§5) HEK-293 cells stably expressing mouse TAAR1 were maintained at 37° C. and 5% CO2 in DMEM high glucose medium, containing fetal calf serum (10%, heat inactivated for 30 min at 56° C.), penicillin/streptomycin (1%), and 375 μg/ml geneticin (Gibco). Cells were released from culture flasks using trypsin/EDTA, harvested, washed twice with ice-cold PBS (without Ca^2+ and Mg^2+), pelleted at 1'000 rpm for 5 min at 4° C., frozen and stored at −80° C. Frozen pellets were suspended in 20 ml HEPES-NaOH (20 mM, pH 7.4) containing 10 mM EDTA and homogenized with a Polytron (PT 6000, Kinematica) at 14'000 rpm for 20 s. The homogenate was centrifuged at 48'000×g for 30 min at 4° C. Subsequently, the supernatant was removed and discarded, and the pellet resuspended in 20 ml HEPES-NaOH (20 mM, pH 7.4) containing 0.1 mM EDTA using the Polytron (20 s at 14'000 rpm). This procedure was repeated and the final pellet resuspended in HEPES-NaOH containing 0.1 mM EDTA and homogenized using the Polytron. Typically, aliquots of 2 ml membrane portions were stored at −80° C. With each new membrane batch the dissociation constant (Kd) was determined via a saturation curve. The TAAR1 radioligand ^3[H]-(S)-4-[(ethyl-phenyl-amino)-methyl]-4,5-dihydro-oxazol-2-ylamine (described in WO 2008/098857) was used at a concentration equal to the calculated Kd value, that was usually around 0.7 nM, resulting in the binding of approximately 0.5% of the radioligand and a specific binding representing approximately 70% of the total binding. Nonspecific binding was defined as the amount of ^3[H]-(S)-4-[(ethyl-phenyl-amino)-methyl]-4,5-dihydro-oxazol-2-ylamine bound in the presence of 10 μM unlabeled ligand. All compounds were tested at a broad range of concentrations (10 μM to 10 μM) in duplicates. […] The 96 deep well plates were incubated for 1 hr at 4° C. Incubations were terminated by rapid filtration through Unifilter-96 plates (Packard Instrument Company) and glass filters GF/C (Perkin Elmer) presoaked for 1 hr in polyethylenimine (0.3%) and washed 3 times with 1 ml of cold binding buffer. After addition of 45 μl of Microscint 40 (PerkinElmer) the Unifilter-96 plate was sealed and after 1 hr the radioactivity counted using a TopCount Microplate Scintillation Counter (Packard Instrument Company).

rat TAAR1 = rat TAAR1 (Rattus norvegicus (Rat), UniProt Q923Y9); test: Radioligand binding assay on rat TAAR1; conditions: rat TAAR1, membranes of stably transfected HEK-293 cells; second value of cell mouse/rat
Sequence of rat TAAR1 (Q923Y9 whole entry): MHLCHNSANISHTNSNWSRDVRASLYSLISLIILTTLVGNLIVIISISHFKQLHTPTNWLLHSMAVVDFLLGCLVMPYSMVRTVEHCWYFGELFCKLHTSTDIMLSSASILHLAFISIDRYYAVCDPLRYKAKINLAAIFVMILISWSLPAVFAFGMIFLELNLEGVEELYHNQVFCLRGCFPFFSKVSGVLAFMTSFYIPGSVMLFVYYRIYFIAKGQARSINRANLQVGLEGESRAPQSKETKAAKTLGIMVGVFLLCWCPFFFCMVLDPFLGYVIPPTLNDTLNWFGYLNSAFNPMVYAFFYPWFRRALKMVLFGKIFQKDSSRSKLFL
Description: as §1, §2, §3
Radioligand Binding Assay on Rat TAAR1
as §4
as §5, with “expressing rat” for “expressing mouse”, “curve. […]” for “curve. The TAAR1 radioligand ^3[H]-(S)-4-[(ethyl-phenyl-amino)-methyl]-4,5-dihydro-oxazol-2-ylamine (described in WO 2008/098857) was used at a concentration equal to the calculated Kd value, that was usually around 0.7 nM, resulting in the binding of approximately 0.5% of the radioligand and a specific binding representing approximately 70% of the total binding.”, “(10 pM” for “(10 μM”

Sequence of mouse TAAR1 (Q923Y8 whole entry): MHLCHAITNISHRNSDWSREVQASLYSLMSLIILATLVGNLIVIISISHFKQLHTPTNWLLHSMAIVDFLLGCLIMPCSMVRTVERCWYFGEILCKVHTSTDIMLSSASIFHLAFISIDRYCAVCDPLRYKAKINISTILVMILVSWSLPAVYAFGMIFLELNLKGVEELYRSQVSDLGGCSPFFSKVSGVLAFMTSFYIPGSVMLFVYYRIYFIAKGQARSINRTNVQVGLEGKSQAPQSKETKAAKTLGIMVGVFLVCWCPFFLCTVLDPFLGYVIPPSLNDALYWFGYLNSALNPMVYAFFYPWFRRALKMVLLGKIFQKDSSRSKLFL

SMILES	Ki (mouse TAAR1) [µM]	Ki (rat TAAR1) [µM]
NC1=N[C@@H](CCc2ccc(Nc3ccc(F)cn3)cc2)CO1 [Example 3, (S)-4-(4-(5-Fluoropyridin-2-ylamino)phenethyl)-4,5-dihydrooxazol-2-amine]	0.0022	0.0002
Cc1cc(Nc2ccc(CC[C@H]3COC(N)=N3)cc2)c2ncccc2c1 [Example 4, (S)-4-(4-(6-Methylquinolin-8-ylamino)phenethyl)-4,5-dihydrooxazol-2-amine]	0.0021	0.0006
NC1=N[C@@H](CCc2ccc(Nc3ccc(Cl)cc3F)cc2)CO1 [Example 7, (S)-4-{2-[4-(4-Chloro-2-fluoro-phenylamino)-phenyl]-ethyl}-4,5-dihydro-oxazol-2-ylamine]	0.0017	0.0001
COc1ccc(Nc2ccc(CC[C@H]3COC(N)=N3)cc2)cc1 [Example 9, (S)-4-{2-[4-(4-Methoxy-phenylamino)-phenyl]-ethyl}-4,5-dihydro-oxazol-2-ylamine]	0.0032	0.0002
NC1=N[C@@H](CCc2ccc(Nc3ccc(C(F)(F)F)cn3)cc2)CO1 [Example 11, {4-[2-((S)-2-Amino-4,5-dihydro-oxazol-4-yl)-ethyl]-phenyl}-(5-trifluoromethyl-pyridin-2-yl)-amine]	0.0002	0.0004
N#Cc1ccc(N(c2ccc(CC[C@H]3COC(N)=N3)cc2)c2ccc(C#N)cn2)nc1 [Example 12, (S)-6,6′-(4-(2-(2-Amino-4,5-dihydrooxazol-4-yl)ethyl)phenylazanediyl)dinicotinonitrile]	0.111	–
NC1=N[C@@H](CCc2ccc(Nc3ccccc3)cc2)CO1 [Example 13, (S)-4-[2-(4-Phenylamino-phenyl)-ethyl]-4,5-dihydro-oxazol-2-ylamine]	0.0013	0.0001
Cc1ccc(Nc2ccc(CC[C@H]3COC(N)=N3)cc2)cc1 [Example 14, (S)-4-(4-(p-Tolylamino)phenethyl)-4,5-dihydrooxazol-2-amine]	0.0008	0.0001
NC1=N[C@@H](CCc2ccc(Nc3ccc(Cl)cn3)cc2)CO1 [Example 15, {4-[2-((S)-2-Amino-4,5-dihydro-oxazol-4-yl)-ethyl]-phenyl}-(5-chloro-pyridin-2-yl)-amine]	0.0005	0.0001
N#Cc1ccc(Nc2ccc(CC[C@H]3COC(N)=N3)cc2)nc1 [Example 16, 6-{4-[2-((S)-2-Amino-4,5-dihydro-oxazol-4-yl)-ethyl]-phenylamino}-nicotinonitrile]	0.0015	0.0004
NC1=N[C@@H](CCc2ccc(Nc3cc(C(F)(F)F)ncn3)cc2)CO1 [Example 17, (S)-4-(4-(6-(Trifluoromethyl)pyrimidin-4-ylamino)phenethyl)-4,5-dihydrooxazol-2-amine]	0.0013	0.0012
NC1=N[C@@H](CCc2ccc(Nc3ccc(Cl)c(Cl)c3)cc2)CO1 [Example 19, (S)-4-(4-(3,4-Dichlorophenylamino)phenethyl)-4,5-dihydrooxazol-2-amine]	0.0002	0.0001
NC1=N[C@@H](CCc2ccc(Nc3ncc(F)cn3)cc2)CO1 [Example 20, {4-[2-((S)-2-Amino-4,5-dihydro-oxazol-4-yl)-ethyl]-phenyl}-(5-fluoro-pyrimidin-2-yl)-amine]	0.0224	0.004
NC1=N[C@@H](CCc2ccc(Nc3ncccc3F)cc2)CO1 [Example 21, {4-[2-((S)-2-Amino-4,5-dihydro-oxazol-4-yl)-ethyl]-phenyl}-(3-fluoro-pyridin-2-yl)-amine]	0.02	0.0005
NC1=N[C@@H](CCc2ccc(Nc3cc(F)ccn3)cc2)CO1 [Example 22, {4-[2-((S)-2-Amino-4,5-dihydro-oxazol-4-yl)-ethyl]-phenyl}-(4-fluoro-pyridin-2-yl)-amine]	0.0034	0.0002
NC1=N[C@@H](CCc2ccc(Nc3cc(C(F)(F)F)ccn3)cc2)CO1 [Example 23, {4-[2-((S)-2-Amino-4,5-dihydro-oxazol-4-yl)-ethyl]-phenyl}-(4-trifluoromethyl-pyridin-2-yl)-amine]	0.0003	0.0002
Cc1cc(Nc2ccc(CC[C@H]3COC(N)=N3)cc2)ncn1 [Example 24, {4-[2-((S)-2-Amino-4,5-dihydro-oxazol-4-yl)-ethyl]-phenyl}-(6-methyl-pyrimidin-4-yl)-amine]	0.0182	0.0013

Next, values leading:

Ki (mouse TAAR1) [µM]	Ki (rat TAAR1) [µM]	SMILES
0.0035	0.0006	NC1=N[C@@H](CCc2ccc(Nc3cccc4cccnc34)cc2)CO1 [Example 1, (S)-4-(4-(Quinolin-8-ylamino)phenethyl)-4,5-dihydrooxazol-2-amine]
0.0021	0.0001	NC1=N[C@@H](CCc2ccc(Nc3cccc4ccccc34)cc2)CO1 [Example 2, (S)-4-(4-(Naphthalen-1-ylamino)phenethyl)-4,5-dihydrooxazol-2-amine]
0.0262	0.0033	NC1=N[C@@H](CCc2ccc(Nc3cccc4cccc(Cl)c34)cc2)CO1 [Example 5, (S)-4-(4-(8-Chloronaphthalen-1-ylamino)phenethyl)-4,5-dihydrooxazol-2-amine]
0.0002	0.0001	NC1=N[C@@H](CCc2ccc(Nc3ccc(Cl)cc3)cc2)CO1 [Example 6, (S)-4-{2-[4-(4-Chloro-phenylamino)-phenyl]-ethyl}-4,5-dihydro-oxazol-2-ylamine]
0.0002	0.0002	NC1=N[C@@H](CCc2ccc(Nc3ccc(C(F)(F)F)cc3)cc2)CO1 [Example 8, (S)-4-{2-[4-(4-Trifluoromethyl-phenylamino)-phenyl]-ethyl}-4,5-dihydro-oxazol-2-ylamine]
0.0001	0.0001	Cc1cc(Nc2ccc(CC[C@H]3COC(N)=N3)cc2)ccc1OC(F)(F)F [Example 10, (S)-4-(4-(3-Methyl-4-(trifluoromethoxy)phenylamino)phenethyl)-4,5-dihydrooxazol-2-amine]
0.0012	0.0002	NC1=N[C@@H](CCc2ccc(Nc3ncc(Cl)cn3)cc2)CO1 [Example 18, {4-[2-((S)-2-Amino-4,5-dihydro-oxazol-4-yl)-ethyl]-phenyl}-(5-chloro-pyrimidin-2-yl)-amine]
